Drawing on patent US9988390B2, “Pyrimidone derivatives and their use in the treatment, amelioration or prevention of a viral disease” (F. Hoffmann-La Roche AG, priority 2015, dated 2018), this text covers IC50 for 31 molecules.

Counter-ions that a name gives are not always drawn. Bounds are passed on as bounds.

The first assay relates to influenza A virus (A/WSN/33 NanoLuc reporter virus) in A549 cells. As to the kind of experiment: microbe, parasite or virus in culture. The settings on record: A549, 24 h, read-out: IC50 values of viral replication inhibition in a cell-based Luciferase Reporter Assay (LRA). The class given is cell-based. (In general: Reporter assays use an easily measured gene product as a stand-in for the process of interest.)
By IC50 is commonly meant the concentration that inhibits the measured activity by half. Turning to `COc1nc(=O)c(O)c2n1[C@@H](C1c3ccccc3CCc3ccccc31)CN(C(C)C)C2=O` [Example 1a-8, (4S)-4-(10,11-Dihydro-5H-dibenzo[a,d][7]annulen-5-yl)-9-hydroxy-6-methoxy-2-(propan-2-yl)-3,4-dihydro-2H-pyrazino[1,2-c]pyrimidine-1,8-dione], the IC50 is 0.006 µM.
Turning to `CC(C)N1C[C@H](C(c2ccccc2)c2ccccc2)n2c(-c3nnn[nH]3)nc(=O)c(O)c2C1=O` [Ia-53, (4S)-4-Benzhydryl-9-hydroxy-2-isopropyl-6-(1H-tetrazol-5-yl)-3,4-dihydropyrazino[1,2-c]pyrimidine-1,8-dione], the IC50 was found to be 20.2 µM.
For `CC(C)N1C[C@H](C2c3ccccc3CCc3ccccc32)n2c(-n3cnnc3)nc(=O)c(O)c2C1=O` [Ia-46], the IC50 was found to be 0.055 µM.
For `COc1nc(=O)c(O)c2n1[C@@H](C(c1ccccc1)c1ccccc1)CN(C(C)C)C2=O` [Example 1a-4, (4S)-4-Benzhydryl-9-hydroxy-2-isopropyl-6-methoxy-3,4-dihydropyrazino[1,2-c]pyrimidine-1,8-dione], the IC50 amounted to 0.014 µM.
On the same count and under the same terms, next, `COc1nc(=O)c(O)c2n1[C@@H](C(c1ccccc1)c1ccccc1)CN([C@H](C)C(F)(F)F)C2=O` [Ia-66, (4S)-4-Benzhydryl-9-hydroxy-6-methoxy-2-[(1R)-2,2,2-trifluoro-1-methyl-ethyl]-3,4-dihydropyrazino[1,2-c]pyrimidine-1,8-dione]: 0.026 µM; `CC(=O)NCc1nc(=O)c(O)c2n1[C@@H](C(c1ccccc1)c1ccccc1)CN(C(C)C)C2=O` [Ia-55, N-[[(4S)-4-Benzhydryl-9-hydroxy-2-isopropyl-1,8-dioxo-3,4-dihydropyrazino[1,2-c]pyrimidin-6-yl]methyl]acetamide]: 0.473 µM; `COc1nc(=O)c(O)c2n1[C@@H]([C@H](c1ccccc1)c1ccc(Cl)cc1)CN(C(C)C)C2=O` [Ia-72, (4S)-4-[(R)-(4-Chlorophenyl)-phenyl-methyl]-9-hydroxy-2-isopropyl-6-methoxy-3,4-dihydropyrazino[1,2-c]pyrimidine-1,8-dione]: 0.04 µM.
For `CC(C)N1C[C@H](C2c3ccccc3CCc3ccccc32)n2c(N)nc(=O)c(O)c2C1=O` [Example 1a-5, (4S)-6-Amino-4-(10,11-dihydro-5H-dibenzo[a,d][7]annulen-5-yl)-9-hydroxy-2-(propan-2-yl)-3,4-dihydro-2H-pyrazino[1,2-c]pyrimidine-1,8-dione], the IC50 is more than 50 µM.
With `CC(C)N1CC(C2c3ccccc3CCc3ccccc32)n2c(CO)nc(=O)c(O)c2C1=O` (stereo not shown) [Ia-48, 4-(6,11-Dihydro-5H-dibenzo[2,1-b:1′,2′-e][7]annulen-11-yl)-9-hydroxy-6-(hydroxymethyl)-2-isopropyl-3,4-dihydropyrazino[1,2-c]pyrimidine-1,8-dione], the IC50 was found to be 0.02 µM.
Regarding `CC(C)N1C[C@H](C2c3ccccc3CCc3ccccc32)n2c(S(C)(=O)=O)nc(=O)c(O)c2C1=O` [Ia-76, (4S)-4-(6,11-Dihydro-5H-dibenzo[2,1-b:1′,2′-e][7]annulen-11-yl)-9-hydroxy-2-isopropyl-6-methylsulfonyl-3,4-dihydropyrazino[1,2-c]pyrimidine-1,8-dione], the IC50 was found to be 0.013 µM.
In the case of `CC(C)N1C[C@H](C(c2ccccc2)c2ccccc2)n2c(N)nc(=O)c(O)c2C1=O` [Example 1a-3, (4S)-6-Amino-4-benzhydryl-9-hydroxy-2-isopropyl-3,4-dihydropyrazino[1,2-c]pyrimidine-1,8-dione], the IC50 is more than 50 µM.
Turning to `CC(C)N1C[C@H](C2c3ccccc3CCc3ccccc32)n2c(NS(C)(=O)=O)nc(=O)c(O)c2C1=O` [Ia-22, N-[(4S)-4-(6,11-dihydro-5H-dibenzo[1,2-a:2′,1′-d][7]annulen-11-yl)-9-hydroxy-2-isopropyl-1,8-dioxo-3,4-dihydropyrazino[1,2-c]pyrimidin-6-yl]methanesulfonamide], the half-inhibitory concentration (IC50) was found to be 0.144 µM.
Same read-out and setting: as for `CC(C)N1C[C@H](C(c2ccccc2)c2ccccc2)n2c(NCC(F)(F)F)nc(=O)c(O)c2C1=O` [Ia-33, (4S)-4-Benzhydryl-9-hydroxy-2-isopropyl-6-(2,2,2-trifluoroethylamino)-3,4-dihydropyrazino[1,2-c]pyrimidine-1,8-dione], the figure is 0.273 µM.
For `COc1nc(=O)c(O)c2n1[C@@H](C(c1ccccc1)c1ccccc1)CN(C)C2=O` [Ia-65, (4S)-4-Benzhydryl-9-hydroxy-6-methoxy-2-methyl-3,4-dihydropyrazino[1,2-c]pyrimidine-1,8-dione], the IC50 was determined as 0.026 µM.
Regarding `COCCOc1nc(=O)c(O)c2n1[C@@H](C(c1ccccc1)c1ccccc1)CN(C)C2=O` [Ia-73, (4S)-4-Benzhydryl-9-hydroxy-6-(2-methoxyethoxy)-2-methyl-3,4-dihydropyrazino[1,2-c]pyrimidine-1,8-dione], the IC50 stood at 0.119 µM.
On to `COc1nc(=O)c(O)c2n1C(C1c3cccc(F)c3CCc3c(F)cccc31)CN(C(C)C)C2=O` (stereo not shown) [Example 1a-20, 4-(1,9-Difluoro-10,11-dihydro-5H-dibenzo[a,d][7]annulen-5-yl)-9-hydroxy-6-methoxy-2-(propan-2-yl)-3,4-dihydro-2H-pyrazino[1,2-c]pyrimidine-1,8-dione], for which the IC50 came out at 0.016 µM.
`CC(C)N1CC(C2c3ccccc3CCc3ccccc32)n2c(S)nc(=O)c(O)c2C1=O` (stereo not shown) [Ia-75, 4-(6,11-Dihydro-5H-dibenzo[2,1-b:1′,2′-e][7]annulen-11-yl)-9-hydroxy-2-isopropyl-6-sulfanyl-3,4-dihydropyrazino[1,2-c]pyrimidine-1,8-dione]: the IC50 was 0.045 µM.
Turning to `CC(C)Nc1nc(=O)c(O)c2n1[C@@H](C1c3ccccc3CCc3ccccc31)CN(C(C)C)C2=O` [Ia-36, (4S)-4-(6,11-Dihydro-5H-dibenzo[2,1-b:1′,2′-e][7]annulen-11-yl)-9-hydroxy-2-isopropyl-6-(isopropylamino)-3,4-dihydropyrazino[1,2-c]pyrimidine-1,8-dione], the IC50 is 0.103 µM.
Regarding `COc1ccc(CNc2nc(=O)c(O)c3n2[C@@H](C(c2ccccc2)c2ccccc2)CN(C(C)C)C3=O)cc1` [Example 1a-2, (4S)-4-Benzhydryl-9-hydroxy-2-isopropyl-6-[(4-methoxyphenyl)methylamino]-3,4-dihydropyrazino[1,2-c]pyrimidine-1,8-dione formate], the IC50 came out at 2.07 µM.
Regarding `COc1nc(=O)c(O)c2n1[C@@H](C1c3ccccc3CCc3ccccc31)CN(C)C2=O` [Example 1a-9, (4S)-4-(10,11-Dihydro-5H-dibenzo[a,d][7]annulen-5-yl)-9-hydroxy-6-methoxy-2-methyl-3,4-dihydro-2H-pyrazino[1,2-c]pyrimidine-1,8-dione], the IC50 was 0.006 µM.
With `CC(C)N1C[C@H](C(c2ccccc2)c2ccccc2)n2c(CO)nc(=O)c(O)c2C1=O` [Ia-74, (4S)-4-Benzhydryl-9-hydroxy-6-(hydroxymethyl)-2-isopropyl-3,4-dihydropyrazino[1,2-c]pyrimidine-1,8-dione], the IC50 turned out to be 0.125 µM.
Regarding `CC(C)N1C[C@H](C2c3ccccc3CCc3ccccc32)n2c(-n3ccnc3)nc(=O)c(O)c2C1=O` [Ia-45, (4S)-4-(6,11-Dihydro-5H-dibenzo[2,1-b:1′,2′-e][7]annulen-11-yl)-9-hydroxy-6-imidazol-1-yl-2-isopropyl-3,4-dihydropyrazino[1,2-c]pyrimidine-1,8-dione], the IC50 amounted to 0.062 µM.
Take `COC(=O)Nc1nc(=O)c(O)c2n1[C@@H](C(c1ccccc1)c1ccccc1)CN(C(C)C)C2=O` [Ia-56, Methyl N-[(4S)-4-benzhydryl-9-hydroxy-2-isopropyl-1,8-dioxo-3,4-dihydropyrazino[1,2-c]pyrimidin-6-yl]carbamate]: the IC50 was determined as 0.2 µM.
For the molecule `COc1nc(=O)c(O)c2n1C(C(c1ccccc1)c1ccccc1Br)CN(C)C2=O` (stereo not shown) [Ia-70, 4-[(2-Bromophenyl)-phenyl-methyl]-9-hydroxy-6-methoxy-2-methyl-3,4-dihydropyrazino[1,2-c]pyrimidine-1,8-dione], the IC50 amounted to 0.027 µM.
Take `CCCCOc1nc(=O)c(O)c2n1[C@@H](C(c1ccccc1)c1ccccc1)CN(C(C)C)C2=O` [Example 1a-15, (4S)-4-Benzhydryl-6-butoxy-9-hydroxy-2-isopropyl-3,4-dihydropyrazino[1,2-c]pyrimidine-1,8-dione]: the IC50 turned out to be 15.3 µM.
Take `CC(=O)Nc1nc(=O)c(O)c2n1[C@@H](C(c1ccccc1)c1ccccc1)CN(C(C)C)C2=O` [Example 1a-16, N-[(4S)-4-Benzhydryl-9-hydroxy-2-isopropyl-1,8-dioxo-3,4-dihydropyrazino[1,2-c]pyrimidin-6-yl]acetamide]: the IC50 is 0.023 µM.
Regarding `CC(C)N1C[C@H](C(c2ccccc2)c2ccccc2)n2c(S(C)(=O)=O)nc(=O)c(O)c2C1=O` [Ia-38, (4S)-4-Benzhydryl-9-hydroxy-2-isopropyl-6-methylsulfonyl-3,4-dihydropyrazino[1,2-c]pyrimidine-1,8-dione], the IC50 amounted to 0.11 µM.
As to `CCN1CC(C(c2ccccc2)c2ccccc2)n2c(OC)nc(=O)c(O)c2C1=O` (stereo not shown) [Ia-64, 4-Benzhydryl-2-ethyl-9-hydroxy-6-methoxy-3,4-dihydropyrazino[1,2-c]pyrimidine-1,8-dione], the IC50 worked out at 0.05 µM.
`CC(C)N1C[C@H](C(c2ccccc2)c2ccccc2)n2c(O)nc(=O)c(O)c2C1=O` [Example 1a-6, (4S)-4-Benzhydryl-6,9-dihydroxy-2-isopropyl-3,4-dihydropyrazino[1,2-c]pyrimidine-1,8-dione]: the IC50 came to 0.218 µM.
As to `CC(C)N1C[C@H](C(c2ccccc2)c2ccccc2)n2c(C(N)=O)nc(=O)c(O)c2C1=O` [Ia-52, (4S)-4-Benzhydryl-9-hydroxy-2-isopropyl-1,8-dioxo-3,4-dihydropyrazino[1,2-c]pyrimidine-6-carboxamide], the IC50 came to 0.093 µM.

Staying with this assay, now noted: A549, isomers identified by X-ray analysis, read-out: IC50.
As for `COc1nc(=O)c(O)c2n1[C@H]([C@H]1c3ccccc3CSc3ccccc31)CN(C(C)C)C2=O` (single isomer, unassigned) [Example 17], the IC50 was found to be 0.028 µM.
